# From patent US5731323A, “Quinuclidine derivatives as squalene synthase inhibitors” (Zeneca Limited, priority 1992, dated 1998)
# What was measured:
# [1] = system: de novo hepatic cholesterol synthesis; assay: Acute rat cholesterol synthesis assay (de novo hepatic cholesterol synthesis from exogenously administered 14C-acetate); format: in vivo; settings: female rats, dose and route not stated
# Procedure: (b) Acute rat cholesterol synthesis assay.
# This is an acute in vivo test in the rat to measure de novo hepatic cholesterol synthesis from exogenously administered ^14 C-acetate.
# Female rats (35-55 g) are housed in reverse lighting conditions (red light from 0200 h-1400 h) for a period of about 2 weeks prior to test. Animals are allowed free access to chow and drinking water throughout this period. At test, animals should weigh 125-150 g.
# Test compounds may be administered by oral gavage, dissolved or suspended in 0.5% polysorbate, or by ip or iv dosing. Control animals receive vehicle alone. After 1 hour the rats are injected ip with 25 μCi [2-^14 C]-acetate (NEN DUPONT. specific activity, 45-60 mCi/mmol NEC-085H, or AMERSHAM specific activity, 50-60 mCi/mmol CFA 14) in a volume of 0.25 ml saline (100 μCi/ml). After a further hour, rats are terminally anaesthetised with halothane and a blood sample obtained from the abdominal vena cava.
# 1 ml of plasma is lyophilised and then saponified in 2 ml ethanolic KOH (1 part 33% KOH, 9 parts ethanol) at 75° C. for 2 hours. After addition of an equal quantity of water, non-saponifiable lipids are extracted with two 5 ml volumes of hexane. The hexane extracts are evaporated to dryness and the residues dissolved in ethanol to determine cholesterol specific radioactivity. ED50 values can be determined in the standard way.
# [2] = system: Squalene synthase; assay: Inhibition of squalene synthase (squalene formation from tritiated farnesyl pyrophosphate, rat liver microsomal protein); format: biochemical; settings: 2.5 μM, substrate 20 μM, 15 minutes, 37° C.
# Procedure: (a) Inhibition of Squalene synthase
# In this test, the ability of a compound to prevent the formation of squalene from a radioactive substrate (tritiated farnesyl pyrophosphate) is assessed.
# The test compound is incubated at a concentration of 25 micromolar in 200 μl of a buffered solution containing potassium phosphate (50 mM), MgCl2 (4.95 mM), KF (9.9 mM), NADPH (0.9 mM) and rat liver microsomal protein (20 μg). Rat liver microsomes are prepared by the method described in published European Patent Application No. 324,421 and stored in liquid nitrogen prior to assay. Assay vials are kept at 37° C. throughout the incubation.
# The reaction is started with the addition of the substrate (1-[^3 H]-farnesyl pyrophosphate), final concentration 20 μM, and stopped after 15 minutes reaction time with the addition of 50 μl of 4% KOH. The reaction products are separated from unreacted substrate after application to a C-18 octadecyl 1 ccBond column (Analytichem Int product No. 617101). An aqueous fraction is eluted with 250 μl of 0.1M KOH. Squalene is then eluted with 1.0 ml 10% ethylacetate in hexane and radioactivity determined. The difference in radioactivity in the presence and absence of the test compound is used to determine the level of inhibition. […] The IC50 can then be determined from a plot of percentage inhibition against concentration of test compound.
structure (smiles),measurement,setting,value
"CCCCOc1ccc(C#CC2(O)CN3CCC2CC3)cn1 (centres unmarked) [Example 1, 3-[2-(6-butoxy-3-pyridyl)ethynyl]quinuclidin-3-ol]",decrease in the rate of cholesterol biosynthesis,[1],71%
same,inhibition (squalene synthase),[2],about 99%
